Reference: patent EP1790349A1

Tests used:
Shigella dysenteriae = format: cell-based; details: disc 6: NaCl 400 mg/mL (control)
Salmonella tifi = format: cell-based; details: disc 6: NaCl 400 mg/mL (control)
Brucella suis = format: cell-based; details: disc 6: NaCl 400 mg/mL (control)
Streptococcus pneumoniae = details: disc 6: NaCl 400 mg/mL (control)
Streptococcus pyogenes = details: disc 6: NaCl 400 mg/mL (control)
Streptococcus aureus = details: disc 6: NaCl 400 mg/mL (control)
Neisseria gonorrhoeae = details: disc 6: NaCl 400 mg/mL (control)
Neisseria meningitides = details: disc 6: NaCl 400 mg/mL (control)
Pseudomona aeruginosa = details: disc 6: NaCl 400 mg/mL (control)
Shigella flexneri = details: disc 6: NaCl 400 mg/mL (control)
Escherichia coli = details: disc 6: NaCl 400 mg/mL (control)
Proteus vulgaris = details: disc 6: NaCl 400 mg/mL (control)
Haemophilus influenzae = details: disc 6: NaCl 400 mg/mL (control)
Klebsiela = details: disc 6: NaCl 400 mg/mL (control)
Rauscher MuLV = test: Rauscher Murine Virus (Rauscher MuLV) system in vivo, splenomegaly; details: rivabirin control, dose not given; in comparison with infected animals that received no treatment

Q: Which results are given for `[Cl-].[Na+]` [NaCl]?
A: inhibitory halos (Shigella dysenteriae): 6 mm; inhibitory halos (Salmonella tifi): 6 mm; inhibitory halos (Brucella suis): 6 mm; inhibitory halos (Streptococcus pneumoniae): 6 mm; inhibitory halos (Streptococcus pyogenes): 6 mm; inhibitory halos (Streptococcus aureus): 6 mm; inhibitory halos (Neisseria gonorrhoeae): 14 mm; inhibitory halos (Neisseria meningitides): 6 mm; inhibitory halos (Pseudomona aeruginosa): 6 mm; inhibitory halos (Shigella flexneri): 6 mm; inhibitory halos (Escherichia coli): 6 mm; inhibitory halos (Proteus vulgaris): 6 mm; inhibitory halos (Haemophilus influenzae): 6 mm; inhibitory halos (Klebsiela): 6 mm

Q: How did the “reduction of the spleen size” value (Rauscher MuLV) turn out when `NC(=O)c1ncn([C@@H]2O[C@H](CO)[C@@H](O)[C@H]2O)n1` [rivabirin] was run?
A: 74%
